Tests used:
Assay type in all cases: cell-based, human
iPSCs = assay: Mesoderm induction of iPSCs: FOXF1 and IRX3 expression
Method: PSCs were cultured in monolayer on hESC-qualified Matrigel-coated plates (Corning) and expanded in NutriStem hPSC XF Medium (Stemgent) and passaged with ReLeSR passaging reagent (STEMCELL Technologies). For mesoderm induction (Day 0), PSC colonies was dissociated with TrypLE cell dissociation reagent (Thermofisher) and plated on Matrigel coated plates in NutriStem medium containing 10 μM Y-27632 Rho kinase inhibitor (Calbiochem). The following day (Day 1), NutriStem medium was replaced with STEMdiff Mesoderm Induction Medium (MIM) (STEMCELL Technologies) and changed each day until day 5.
Note: Only use Y-27632 stock solutions that have been resuspended in DMSO. […] Conduct Mesoderm induction of iPSC in a laminar flow cabinet. • 3. Expand cells in NutriStem hPSC XF Medium overnight and change 100% of the medium without Y-27632 every 24 hours in a laminar flow cabinet for cell culture. When changing media, tilt plate up and allow media to pool at the bottom of wells. Aspirate the pooled medium without touching the surface of the plate. Replace with medium warmed to room temperature by pipetting 2 ml down the side of the wells. Cell Passaging • 1. Expand cell colonies until they have reached 70-80% confluence in high-density areas of the wells. High-density accumulation can occur along the edges of the well as well as the middle. Cells permitted to reach high density will lose their potential for differentiation after multiple passages. • 2. Prior to cell passage, warm cell wash buffer and NutriStem hPSC XF Medium to room temperature. Conduct cell passage in a laminar flow cabinet. • 3. Aspirate NutriStem hPSC XF Medium from wells with vacuum aspirator and wash with PBS without calcium or magnesium. Remove PBS and add 1 ml of ReLeSR reagent to side of well. Agitate plate to allow ReLeSR reagent to spread evenly on the surface. • 4. Aspirate ReLeSR reagent with vacuum aspirator after 30 seconds, which will leave behind a thin film of liquid. Incubate plate at 37° C. for 5-8 minutes undisturbed. • 5. Add fresh NutriStem hPSC XF Medium to wells and gently remove the cell colonies from the plate. Check that most cells have been dislodged from the plate surface with a light microscope. If not, rewash with more medium as needed. • 6. Transfer cell colony suspension in NutriStem hPSC XF Medium to Matrigel coated culture plates for further expansion (see Cell plating and culture above). Generation of iPSC Derived MSCs Mesoderm Induction of iPSC • 1. When iPSCs have reached 70-80% confluence, they will need to be passaged as single cells rather than colonies prior to mesoderm induction (day 0). • 2. Prepare for passage by warming cell wash buffer and NutriStem hPSC XF medium to room temperature and add Y-27632 Rho kinase inhibitor to medium at a final concentration of 10 μM. […]

iPSC-beige adipocytes [1] = assay: Fatty acid uptake assay; settings: adipocytes whitened 6 days without rosiglitazone
Method: Following washes, add secondary antibody diluted at a ratio of 1:1200 and incubate 2 hours at room temperature. • 5. Remove secondary antibody solution and wash 3 times with TBS with Tween 20 (5 minutes per wash). • 6. Develop membrane with Clarity™ Western ECL Substrate and detect using a Bio-Rad ChemiDoc Touch Imaging System. • 7. Quantitation of protein was performed using Image Lab software (Bio-Rad). Fatty Acid Uptake Assay Preparation • 1. Expand and grow iPSC-beige and whitened iPSC-beige adipocytes to full maturity in a 96 well plate (day 12) (see Generation of beige adipocytes above). To whiten iPSC-beige adipocytes for this assay, induce iPSC-MSCs for three days in the induction cocktail as described in the differentiation protocol (see Generation of beige adipocytes above). Following three days of induction, replace beige induction medium with DMEM containing 10% FBS and insulin ([…]). Change 100% of medium every 3 days until full maturity (day 12). • 2. On day 12, replace culture medium with DMEM containing 10% FBS. Change 100% of medium every 2 days for 6 days. • 3. Following 6 days of rest, remove culture medium and replace with […] of serum free DMEM containing 0.2% BSA. Incubate the plate at 37° C. in a 5% CO2 incubator for 1 hour. • 4. After 1 hour, add CL316,243 ([…]) to designated wells. Allow cells to incubate for 2 hours. • 5. […] Quantification and Statistical Analysis

iPSC-beige adipocytes [2] = assay: Seahorse XF oxygen consumption after β3-adrenergic stimulation; settings: adipocytes whitened 4 days without rosiglitazone, CL316,243 for 4 hr
iPSC-beige adipocytes [3] = assay: UCP1 qPCR after β3-adrenergic stimulation of iPSC-beige adipocytes
FD-MSCs = assay: Beige adipogenic precursor markers in FD-MSCs (flow cytometry, immunostaining, qPCR); settings: 2 days pretreatment
Method: All assays were performed between 7 and 15 passages. For osteocyte differentiation, mature MSCs were grown in 24 well culture plates to 100% confluency in MesenCult-ACF and induced to differentiate in OsteoLife Complete Osteogenesis Medium (Lifeline Cell Technology) for 21 days prior to staining with Lifeline Alizarin Red Stain to visualize calcium deposition. For chondrocyte differentiation. For beige adipogenic precursor generation, cells were grown in 24 well culture plates to 90% confluence and treated with 5 uM SB413542 (Sigma) and 10 nM human IL-4 (Peprotech) for 2 days. For beige adipogenic induction, adipogenic precursors are differentiated for 3 days with adipogenic medium consisting of T3 (2 nM), insulin (170 nM), rosiglitazone (1 μM), SB413542 (5 uM), IBMX (0.5 mM), dexamethasone (5 μM) and indomethacin (125 μM) in EGM-2 medium (Lonza) supplemented with the BulletKit minus FGF2 (modified from^33). Thereafter, cells are maintained in adipogenic medium without IBMX, dexamethasone and indomethacin. The medium was changed every 3 days and adipocytes were fully differentiated by 9-12 days as determined by lipid accumulation and peak expression of UCP1.
Cell Isolation, Expansion and Differentiation of Interscapular Brown Adipose Tissue Preadipocytes • 1. Prior to adipose cell isolation, warm DMEM, FBS and cell wash buffer to room temperature. • 2. In a laminar flow cabinet for cell culture, place 5 g of adipose tissue on a 100×20 mm dish. Suspend tissue in 1 mL of Adipose Tissue Dissociation Kit enzyme digest cocktail and finely mince with a razorblade. • 3. Transfer cell suspension slurry to a 5 mL polystyrene round bottom tube and add an additional 1.5 mL of enzyme digest cocktail to tube. • 4. Incubate tube at 37° C. on a rotating nutator for 30 minutes. During incubation period, briefly vortex sample for 5 s in 10-minute intervals. • 5. Transfer cells to a 15 mL tube and add 5 mL of DMEM. Filter cell suspension through a 100 μm strainer into a new 15 mL tube and centrifuge at 300 g for 5 minutes to form a pellet. • 6. Remove supernatant and leave behind […] of DMEM. […]

Molecule: Cc1c[nH]c(-c2cnc(NCCNc3ccc(C#N)cn3)nc2-c2ccc(Cl)cc2Cl)n1 [CHIR]
- FOXF1 protein compared to StemDiff MIM (iPSCs; 1.5 μM CHIR in combination with VEGF and BMP4): significant increase
- expression of FOXF1 (qPCR) (iPSCs; CHIR raised to 5 μM in combination with BMP4 and VEGF): decrease

Molecule: C[C@H](Cc1ccc2c(c1)OC(C(=O)[O-])(C(=O)[O-])O2)NC[C@H](O)c1cccc(Cl)c1.[Na+].[Na+] [CL316,243]
- fatty acid (FA) uptake (iPSC-beige adipocytes [1]): increased
- overall respiration and proton leak (iPSC-beige adipocytes [2]): increased overall respiration and proton leak
- effect on UCP1 expression (iPSC-beige adipocytes [3]; during initial differentiation, in the presence of rosiglitazone): masked or inhibitory
- UCP1 expression (iPSC-beige adipocytes [3]; during initial differentiation, without rosiglitazone): increased
- UCP1 expression (iPSC-beige adipocytes [3]; mature iPSC-beige adipocytes, CL316,243 1 μM, 4 hr): increased expression

B1: IL-4: human IL-4 (Peprotech), used at 10 nM (protein, UniProt P05112 25-153, looked up)
Interleukin-4: HKCDITLQEIIKTLNSLTEQKTLCTELTVTDIFAASKNTTEKETFCRAATVLRQFYSHHEKDTRCLGATAQQFHRHKQLIRFLKRLDRNLWGLAGLNSCPVKEANQSTLENFLERLKTIMREKYSKCSS
- transcription of beige adipogenic precursor markers PDGFRα and EBF2 (FD-MSCs): little effect

Source: patent publication US12312599B2, “Methods, compositions, and kits for producing beige adipocytes and treating metabolic disorders” (MaineHealth, priority 2018, dated 2025)
